Molecules are shown by their SMILES. ≈ marks a conversion by molar mass, not a printed value.

Type in all cases: cell-based
For one assay, the system named is Proteus mirabilis. The assay is described as follows: Minimum inhibition concentration (MIC), Table 2. The following applies: Germ: Proteus mirabilis; read-out: Minimum inhibition concentration (MIC). An excerpt:
Minimum inhibition concentration (MIC) in /ml

Assay [1] concerns Staphylococcus aureus 285. The assay is described as follows: Minimum inhibition concentration (MIC), Table 1. Particulars: for MIC: Staphylococcus aureus, 285, Germ: Staphylococcus aureus 285, read-out: Minimum inhibition concentration (MIC). An excerpt:
(§1) Minimum inhibition concentration (MIC) in γ/ml
Germ: Staphylococcus aureus 285

A further assay deals with Streptococcus pyogenes A. The assay is described as follows: Minimum inhibition concentration (MIC), Table 3. Particulars: Germ: Streptococcus pyogenes A; for MIC: read-out: Minimum inhibition concentration MIC. An excerpt:
Minimum inhibition concentration MIC in γ/ml
Germ: Streptococcus pyogenes A

The test system of a further assay is Streptococcus D. The assay can be described thus: Minimum inhibition concentration (MIC), Table 4. Particulars: Germ: Streptococcus D; for MIC: Streptococcus, read-out: Minimum inhibition concentration (MIC).
From the text: as §1

Assay [2] deals with Staphylococcus aureus SG 511. The assay is described as follows: Minimum inhibition concentration (MIC), Table 5. The following applies: Staphylococcus aureus, SG511, Germ: Staphylococcus aureus SG 511; read-out: Minimum inhibition concentration (MIC).
From the text: as §1
Germ: Staphylococcus aureus SG 511

Turning to `Cc1n[nH]c(SCC2=C(C(=O)O)N3C(=O)C(NC(=O)Cc4ccc(C(=N)N)cc4)C3SC2)n1` (stereo not drawn) [Example 23, 3-[(5-methyl-1,2,4-triazole-3-yl)-thiomethyl]-7-(4-amidino-phenylacetamido)-Δ 3-cephem-4-carboxylic acid], the MIC is 25 µg/mL (≈ 51.3 µM) with Proteus mirabilis and 1.6 to 2.5 µg/mL (≈ 3.28 to 5.13 µM) in assay [1].

As for `N=C(N)c1ccc(CC(=O)NC2C(=O)N3C(C(=O)O)=C(CSc4nc[nH]n4)CSC23)cc1` (stereo not drawn) [Example 24, 3-[(1,2,4-triazole-3-yl)-thiomethyl]-7-(4-amidino-phenylacetamido)-Δ3-cephem-4-carboxylic acid], the MIC was 25 µg/mL (≈ 52.8 µM) in the assay on Proteus mirabilis and 0.5 to 1.25 µg/mL (≈ 1.06 to 2.64 µM) in assay [1].

Turning to `N=C(N)c1ccc(CC(=O)NC2C(=O)N3C(C(=O)O)=C(CSc4nc5ccccc5s4)CSC23)cc1` (stereo not drawn) [Example 92, 3-[benzothiazole-2-yl-thiomethyl]-7-[4-amidino-phenylacetamido]-Δ 3-cephem-4-carboxylic acid], the MIC lay within 0.000391 to 0.0078 µg/mL (≈ 0.000725 to 0.0145 µM) in the assay on Streptococcus pyogenes A, 0.196 to 6.25 µg/mL (≈ 0.363 to 11.6 µM) in the assay on Streptococcus D, 0.156 to 0.391 µg/mL (≈ 0.289 to 0.725 µM) in assay [1] and 0.0625 to 0.078 µg/mL (≈ 0.116 to 0.145 µM) in assay [2].

In the case of `Nn1cnnc1SCC1=C(C(=O)O)N2C(=O)C(NC(=O)Cc3ccc(C4=NCCCN4)cc3)C2SC1` (stereo not drawn) [Example 100, 3-[(4-amino-4H-1,2,4-triazole-3-yl)-thiomethyl]-7-[4-(1,4,5,6-tetrahydropyrimide-2-yl)-phenylacetamido]-Δ3-cephem-4-carboxylic acid], the MIC lay within 0.008 to 0.0156 µg/mL (≈ 0.0151 to 0.0295 µM) in the assay with Streptococcus pyogenes A and 3.1 to 12.5 µg/mL (≈ 5.86 to 23.6 µM) in the assay on Proteus mirabilis.

`Cc1nnc(SCC2=C(C(=O)O)N3C(=O)C(NC(=O)Cc4ccc(C5=NCCCN5)cc4)C3SC2)n1N` (stereo not drawn) [Example 101, 3-[(4-amino-5-methyl-1,2,4-triazole-3-yl)-thiomethyl]-7-[4-(1,4,5,6-tetrahydropyrimide-2-yl)-phenylacetamido]-Δ3-cephem-4-carboxylic acid]: the MIC is 25 µg/mL (≈ 46.1 µM) in the assay on Proteus mirabilis and 0.5 to 1.25 µg/mL (≈ 0.921 to 2.3 µM) in assay [1].

As for `O=C(Cc1ccc(C2=NCCCN2)cc1)NC1C(=O)N2C(C(=O)O)=C(CSc3nnc(-c4ccccc4)o3)CSC12` (stereo not drawn) [Example 103, 3-[(5-phenyl-1,3,4-oxadiazole-2-yl)-thiomethyl]-7-[4-(1,4,5,6-tetrahydropyrimide-2-yl)-phenylacetamido]-Δ3-cephem-4-carboxylic acid], the results for the “Minimum inhibition concentration (MIC)” value (with Streptococcus pyogenes A; with Streptococcus D; in assay [1] (Germ: Staphylococcus aureus 285)) were 0.000391 to 0.0078 µg/mL, 10 to 50 µg/mL and 0.156 to 0.391 µg/mL, respectively. Also, the MIC in assay [2] is 0.0625 to 0.078 µg/mL (≈ 0.106 to 0.132 µM).

As to `O=C(Cc1ccc(C2=NCCCN2)cc1)NC1C(=O)N2C(C(=O)O)=C(CSc3ccc([N+](=O)[O-])cn3)CSC12` (stereo not drawn) [Example 105, 3-[(5-nitropyridine-2-yl)-thiomethyl]-7-[4-(1,4,5,6-tetrahydropyrimide-2-yl)-phenylacetamido]-Δ3-cephem-4-carboxylic acid], the MIC in the assay on Streptococcus pyogenes A is 0.000391 to 0.0078 µg/mL (≈ 0.000688 to 0.0137 µM); in the assay on Streptococcus D, 10 to 50 µg/mL (≈ 17.6 to 87.9 µM); in assay [1] it was 0.156 to 0.391 µg/mL (≈ 0.274 to 0.688 µM); in assay [2], 0.0625 to 0.078 µg/mL (≈ 0.11 to 0.137 µM).

Consider `Cc1nc(SCC2=C(C(=O)O)N3C(=O)C(NC(=O)Cc4ccc(C5=NCCCN5)cc4)C3SC2)sc1C` (stereo not drawn) [Example 106, 3-[(4,5-dimethylthiazole-2-yl)-thiomethyl]-7-[4-(1,4,5,6-tetrahydropyrimide-2-yl)-phenylacetamido]-Δ3-cephem-4-carboxylic acid], for which the MIC in the assay with Streptococcus pyogenes A was 0.000391 to 0.0078 µg/mL (≈ 0.000701 to 0.014 µM); in the assay on Streptococcus D it was 10 to 50 µg/mL (≈ 17.9 to 89.7 µM); in assay [1], 0.156 to 0.391 µg/mL (≈ 0.28 to 0.701 µM); in assay [2] it was 0.0625 to 0.078 µg/mL (≈ 0.112 to 0.14 µM).

Regarding `Cc1nsc(SCC2=C(C(=O)O)N3C(=O)C(NC(=O)Cc4ccc(C5=NCCCN5)cc4)C3SC2)n1` (stereo not drawn) [Example 108, 3-[(3-methyl-1,2,4-thiadiazole-5-yl)-thiomethyl]-7-[4-(1,4,5,6-tetrahydropyrimide-22-yl)-phenylacetamido]-Δ3-cephem-4-carboxylic acid], the MIC lay in the range of 0.000391 to 0.0078 µg/mL (≈ 0.000718 to 0.0143 µM) with Streptococcus pyogenes A, 10 to 50 µg/mL (≈ 18.4 to 91.8 µM) with Streptococcus D, 0.156 to 0.391 µg/mL (≈ 0.286 to 0.718 µM) in assay [1] and 0.0625 to 0.078 µg/mL (≈ 0.115 to 0.143 µM) in assay [2].

`O=C(Cc1ccc(C2=NCCCN2)cc1)NC1C(=O)N2C(C(=O)O)=C(CSc3nc4ccccc4o3)CSC12` (stereo not drawn) [Example 109, 3-[(benzoxazole-2-yl)-thiomethyl]-7-[4-(1,4,5,6-tetrahydropyrimide-2-yl)-phenylacetamido]-Δ3-cephem-4-carboxylic acid]: the MIC in the assay with Streptococcus pyogenes A lay in the range of 0.000391 to 0.0078 µg/mL (≈ 0.000694 to 0.0138 µM); with Streptococcus D, 10 to 50 µg/mL (≈ 17.7 to 88.7 µM); in assay [1], 0.156 to 0.391 µg/mL (≈ 0.277 to 0.694 µM); in assay [2] it was 0.0625 to 0.078 µg/mL (≈ 0.111 to 0.138 µM).

`CC(C)(C)c1csc(SCC2=C(C(=O)O)N3C(=O)C(NC(=O)Cc4ccc(C5=NCCN5)cc4)C3SC2)n1` (stereo not drawn) [Example 111, 3-[(4-tert.butyl-thiazole-2-yl)-thiomethyl]-7-[-4-(imidazoline-2-yl)-phenylacetamido]-Δ3-cephem-4-carboxylic acid]: the MIC in the assay with Streptococcus pyogenes A lay in the range of 0.000391 to 0.0078 µg/mL (≈ 0.000684 to 0.0136 µM); in the assay with Streptococcus D, 0.196 to 6.25 µg/mL (≈ 0.343 to 10.9 µM); in assay [1], 0.156 to 0.391 µg/mL (≈ 0.273 to 0.684 µM); in assay [2], 0.0625 to 0.078 µg/mL (≈ 0.109 to 0.136 µM).

Turning to `CC(C)c1csc(SCC2=C(C(=O)O)N3C(=O)C(NC(=O)Cc4ccc(C5=NCCN5)cc4)C3SC2)n1` (stereo not drawn) [Example 112, 3-[(4-isopropyl-thiazole-2-yl)-thiomethyl]-7-[4-(imidazoline-2-yl)-phenylacetamido]-Δ3-cephem-4-carboxylic acid], the MIC in the assay with Streptococcus pyogenes A was 0.000391 to 0.0078 µg/mL (≈ 0.000701 to 0.014 µM); in the assay on Streptococcus D, 0.196 to 6.25 µg/mL (≈ 0.351 to 11.2 µM); in assay [1] it was 0.156 to 0.391 µg/mL (≈ 0.28 to 0.701 µM); in assay [2], 0.0625 to 0.078 µg/mL (≈ 0.112 to 0.14 µM).

With `CCCCc1csc(SCC2=C(C(=O)O)N3C(=O)C(NC(=O)Cc4ccc(C5=NCCN5)cc4)C3SC2)n1` (stereo not drawn) [Example 113], the MIC in the assay with Streptococcus pyogenes A is 0.000391 to 0.0078 µg/mL (≈ 0.000684 to 0.0136 µM); in the assay on Streptococcus D, 0.196 to 6.25 µg/mL (≈ 0.343 to 10.9 µM); in assay [1], 0.156 to 0.391 µg/mL (≈ 0.273 to 0.684 µM); in assay [2] it was 0.0625 to 0.078 µg/mL (≈ 0.109 to 0.136 µM).

`CCCc1csc(SCC2=C(C(=O)O)N3C(=O)C(NC(=O)Cc4ccc(C5=NCCN5)cc4)C3SC2)n1` (stereo not drawn) [Example 114, 3-[(4-n-propyl-thiazole-2-yl)-thiomethyl]-7-[4-(imidazoline-2-yl)-phenylacetamido]-Δ3-cephem-4-carboxylic acid]: the MIC in the assay with Streptococcus pyogenes A was in the range of 0.000391 to 0.0078 µg/mL (≈ 0.000701 to 0.014 µM); with Streptococcus D, 0.196 to 6.25 µg/mL (≈ 0.351 to 11.2 µM); in assay [1], 0.156 to 0.391 µg/mL (≈ 0.28 to 0.701 µM); in assay [2], 0.0625 to 0.078 µg/mL (≈ 0.112 to 0.14 µM).

With `O=C(Cc1ccc(C2=NCCN2)cc1)NC1C(=O)N2C(C(=O)O)=C(CSc3nnc(-c4ccccc4)o3)CSC12` (stereo not drawn) [Example 116, 3-[(5-phenyl-1,3,4-oxadiazole-2-yl)-thiomethyl]-7-[4-(imidazoline-2-yl)-phenylacetamido]-Δ3-cephem-4-carboxylic acid], the MIC in the assay with Streptococcus pyogenes A lay within 0.000391 to 0.0078 µg/mL (≈ 0.000678 to 0.0135 µM); in the assay on Streptococcus D, 10 to 50 µg/mL (≈ 17.3 to 86.7 µM); in assay [1], 0.5 to 1.25 µg/mL (≈ 0.867 to 2.17 µM); in assay [2] it was 0.0625 to 0.078 µg/mL (≈ 0.108 to 0.135 µM).

For `O=C(Cc1ccc(C2=NCCN2)cc1)NC1C(=O)N2C(C(=O)O)=C(CSc3nc(-c4ccccc4)cs3)CSC12` (stereo not drawn) [Example 117, 3-[(4-phenyl-thiazole-2-yl)-thiomethyl]-7-[4-(imidazoline-2-yl)-phenylacetamido]-Δ3-cephem-4-carboxylic acid], the MIC is 0.000391 to 0.0078 µg/mL (≈ 0.000661 to 0.0132 µM) with Streptococcus pyogenes A, 10 to 50 µg/mL (≈ 16.9 to 84.5 µM) in the assay on Streptococcus D, 0.5 to 1.25 µg/mL (≈ 0.845 to 2.11 µM) in assay [1] and 0.0625 to 0.078 µg/mL (≈ 0.106 to 0.132 µM) in assay [2].

On to `CCc1nnc(SCC2=C(C(=O)O)N3C(=O)C(NC(=O)Cc4ccc(C(=N)N)cc4)C3SC2)s1` (stereo not drawn) [Example 122, 3-[(5-ethyl-1,3,4-thiadiazole-2-yl)-thiomethyl]-7-(4-amidino-phenylacetamido)-Δ3-cephem-4-carboxylic acid], for which the MIC with Streptococcus pyogenes A lay within 0.008 to 0.0156 µg/mL (≈ 0.0154 to 0.0301 µM); in the assay on Streptococcus D, 10 to 50 µg/mL (≈ 19.3 to 96.4 µM); in assay [1] it was 0.5 to 1.25 µg/mL (≈ 0.964 to 2.41 µM); in assay [2], 0.0625 to 0.078 µg/mL (≈ 0.121 to 0.15 µM).

The values above are taken from patent US4016159A, “Acylamino-cephem-carboxylic acids containing an amidino or guanidino group in the molecule” (Hoechst Aktiengesellschaft, priority 1973, dated 1977).
